Data on 25 molecules can be found in US20100075960A1 (priority 2006, published 2010).

The IC50 is the midpoint of a concentration-inhibition curve.

Where a name gives a salt, the structure may show the parent alone. A value given as a limit tells only on which side of the number the result lay.

In this assay the test system is HCT116. The assay is described as follows: Inhibition of cell proliferation, HCT116. It counts as cell-based. Particulars: Homo sapiens, HCT-116; 72 h treatment; methylene blue or CellTiter-Glo. The protocol: II. Inhibition of Cell Proliferation by PLK1 Inhibitors.
Exponentially growing cell lines of different tumor origins, cultured in appropriate media containing 10% fetal bovine serum at 37° C. in a 5% CO2 incubator were plated in 96 or 384-well plates. Twenty four hours post-plating, cells were treated with different concentrations of test compounds ranging from 20 μM to 0.04 nM. Several wells were left untreated as a control. Seventy two hours post-treatment, cell numbers were determined using different techniques; 100 μl per well of methylene blue (Sigma M9140) (0.5% in 50:50 Ethanol:water), or 10-100 μl per well of CellTiter-Glo (Promega #G7573), depending on well size. For methylene blue staining, stain was incubated at room temperature for 30 minutes before plates were rinsed and dye solubilized in 1% N-lauroyl sarcosine, sodium salt, (Sigma L5125, in PBS). Plates were read on a microplate reader, measuring the OD at 620 nm. For CellTiter-Glo, plates were incubated at room temperature for 15 minutes and the chemiluminescent signal was read on the Victor V or Envison 2100 reader.
Percent inhibition of cell growth was expressed as percent proliferation relative to 100% proliferation (control). Concentration of test compound that inhibited 50% of cell growth (IC50) was determined by 4 parameter fit of data using XLfit, (value of no cell control was substracted from all samples for background). The data are shown in Table 1 and Table 2 below and represent a compilation of several different experiments each performed using the general parameters outlined above, although minor variations may have been employed in some instances, in Table 1 and Table 2, +=IC50>1 μM; ++=IC50 0.5-1 μM: +++=IC50<0.5 μM.
In general terms: Cellular ATP, detected with luciferase, serves as a proxy for viable cell number.
For `COc1cc2ncn(-c3cc(O[C@H](C)c4cccc(OCCN5CCN(C)CC5)c4Cl)c(C(N)=O)s3)c2cc1OC` [Example 42, 5-[5,6-Bis(methyloxy)-1H-benzimidazol-1-yl]-3-{[(1R)-1-(2-chloro-3-{[2-(4-methyl-1-piperazinyl)ethyl]oxy}phenyl)ethyl]oxy}-2-thiophenecarboxamide], the IC50 is less than 500 nM.
On to `C[C@@H](Oc1cc(-n2cnc3cc(-c4cc[n+]([O-])cc4)ccc32)sc1C(N)=O)c1cccc(OC2CCNCC2)c1Cl` [Example 37, 3-({(1R)-1-1-[2-Chloro-3-(4-piperidinyloxy)phenyl]ethyl}oxy)-5-[5-(1-oxido-4-pyridinyl)-1H-benzimidazol-1-yl]-2-thiophenecarboxamide], for which the IC50 is greater than 1000 nM.
`C[C@@H](Oc1cc(-n2cnc3cc(-c4cccnc4)ccc32)sc1C(N)=O)c1cccc(OC2CCN(C)CC2)c1Cl` [Example 11, 3-[((1R)-1-[2-chloro-3-[(1-methyl-4-piperidinyl)oxy]phenyl}ethyl)oxy}-5-[5-(3-pyridinyl)-1H-benzimidazol-1-yl]-2-thiophenecarboxamide] gave an IC50 of less than 500 nM.
Under `C[C@@H](Oc1cc(-n2cnc3cc(-c4cnn(C)c4)ccc32)sc1C(N)=O)c1ccc(F)c(OC2CCNCC2)c1Cl` [Example 33, 3-({(1R)-1-[2-Chloro-4-fluoro-3-(4-piperidinyloxy)phenyl]ethyl}oxy)-5-[5-(1-methyl-1H-pyrazol-4-yl)-1H-benzimidazol-1-yl]-2-thiophenecarboxamide] stands less than 500 nM; under `C[C@@H](Oc1cc(-n2cnc3ccc(Br)cc32)sc1C(N)=O)c1cccc(OC2CCNCC2)c1Cl` [Example 7, 5-(6-Bromo-1H-benzimidazol-1-yl)-3-({(1R)-1-[2-chloro-3-(4-piperidinyloxy)phenyl]ethyl}oxy)-2-thiophenecarboxamide], less than 500 nM; under `C[C@@H](Oc1cc(-n2cnc3cc(OC(F)(F)F)ccc32)sc1C(N)=O)c1cccc(OC2CCNCC2)c1Cl` [Example 61], less than 500 nM.
Under `C[C@@H](Oc1cc(-n2cnc3ccc(OC(F)(F)F)cc32)sc1C(N)=O)c1cccc(OC2CCNCC2)c1Cl` [Example 63, 3-({(1R)-1-[2-chloro-3-(4-piperidinyloxy)phenyl]ethyl}oxy)-5-[6-[(trifluoromethyl)oxy]-1H-1-benzimidazol-1-yl}-2-thiophenecarboxamide] stands less than 500 nM; under `C[C@@H](Oc1cc(-n2cnc3cc(Cl)ccc32)sc1C(N)=O)c1cccc(OC2CCN(CCN)CC2)c1Cl` [Example 22, 3-{[(1R)-1-(3-{[1-(2-aminoethyl)-4-piperidinyl]oxy}-2-chlorophenyl)ethyl]oxy}-5-(5-chloro-1H-benzimidazol-1-yl)-2-thiophenecarboxamide], less than 500 nM.
The figure for `CC(Oc1cc(-n2cnc3cc(-c4cnn(C)c4)ccc32)sc1C(N)=O)c1cccc(OC2CCN(C)CC2)c1F` (racemic) [Example 76, (±)-3-[(1-{2-Fluoro-3-[(1-methyl-4-piperidinyl)oxy]phenyl}ethyl)oxy]-5-[5-(1-methyl-1H-pyrazol-4-yl)-1H-benzimidazol-1-yl]-2-thiophenecarboxamide] is less than 500 nM; for `C[C@@H](Oc1cc(-n2cnc3ccc(Cl)cc32)sc1C(N)=O)c1cccc(OC2CCN(C)CC2)c1Cl` [Example 53, 5-(6-Chloro-1H-benzimidazol-1-yl)-3-[((1R)-1-(2-chloro-3-([1-methyl-4-piperidinyl)oxy]phenyl)}oxy]-2-thiophenecarboxamide] it is less than 500 nM; for `C[C@@H](Oc1cc(-n2cnc3cc(Cl)ccc32)sc1C(N)=O)c1cccc(OC2CCNCC2)c1Cl` [Example 8, 5-(5-Chloro-1H-benzimidazol-1-yl)-3-({(1R)-1-[2-chloro-3-(4-piperidinyloxy)phenyl]ethyl}oxy)-2-thiophenecarboxamide] it is less than 500 nM.
Take `Cc1cc(-c2ccc3c(c2)ncn3-c2cc(O[C@H](C)c3cccc(OC4CCN(C)CC4)c3Cl)c(C(N)=O)s2)ccn1` [Example 50, 3-[((1R)-1-{2-Chloro-3-[(1-methyl-4-piperidinyl)oxy]phenyl}ethyl)oxy]-5-[5-(2-methyl-4-pyridinyl)-1H-benzimidazol-1-yl]-2-thiophenecarboxamide]: the IC50 was less than 500 nM.
Under `CC(C)N1CCC(Oc2cccc([C@@H](C)Oc3cc(-n4cnc5cc(Cl)ccc54)sc3C(N)=O)c2Cl)CC1` [Example 24, 5-(5-Chloro-1H-benzimidazol-1-yl)-3-{[(1R)-1-(2-chloro-3-{[1-(1-methylethyl)-4-piperidinyl]oxy}phenyl)ethyl]oxy}-2-thiophenecarboxamide] stands less than 500 nM; under `C[C@@H](Oc1cc(-n2cnc3cc(-c4cnn(C)c4)ccc32)sc1C(N)=O)c1cccc(OCC2CCNCC2)c1Cl` [Example 44, 3-[((1R)-1-{2-Chloro-3-[(4-piperidinylmethyl)oxy]phenyl}ethyl)oxy]-5-[5-(1-methyl-1H-pyrazol-4-yl)-1H-benzimidazol-1-yl]-2-thiophenecarboxamide trifluoroacetate], less than 500 nM; under `C[C@@H](Oc1cc(-n2cnc3cc(Br)ccc32)sc1C(N)=O)c1cccc(OC2CCN(C)CC2)c1Cl` [Example 51, 5-(5-Bromo-1H-benzimidazol-1-yl)-3-[((1R)-1-{2-chloro-3-[(1-methyl-4-piperidinyl)oxy]phenyl}ethyl)oxy]-2-thiophenecarboxamide], less than 500 nM.
The figure for `C[C@@H](Oc1cc(-n2cnc3ccccc32)sc1C(N)=O)c1cccc(OC2CCNCC2)c1Cl` [Example 14, 5-(1H-Benzimidazol-1-yl)-3-({(1R)-1-[2-chloro-3-(4-piperidinyloxy)phenyl]ethyl}oxy)-2-thiophenecarboxamide] is less than 500 nM; for `C[C@@H](Oc1cc(-n2cnc3ccc(CS(C)(=O)=O)cc32)sc1C(N)=O)c1cccc(OC2CCN(C)CC2)c1Cl` [Example 55, 3-[((1R)-1-(2-chloro-3-[(1-methyl-4-piperidinyl)oxy]phenyl}ethyl)oxy]-5-(6-[(methylsulfonyl)methyl]1H-benzimidazol-1-yl}-2-thiophenecarboxamide] it is greater than 1000 nM.
`C[C@@H](Oc1cc(-n2cnc3cc(Cl)ccc32)sc1C(N)=O)c1cccc(OC[C@@H]2CNCCO2)c1Cl` [Example 28, 5-(5-Chloro-1H-benzimidazol-1-yl)-3-{[(1R)-1-(2-chloro-3-{[(2S)-2-morpholinomethyl]oxy}phenyl)ethyl]oxy}-2-thiophenecarboxamide] yielded a half-maximal inhibitory concentration (IC50) of less than 500 nM.
The figure for `C[C@@H](Oc1cc(-n2cnc3cc(Cl)ccc32)sc1C(N)=O)c1ccc(F)c(OC2CCN(C)CC2)c1Cl` [Example 32, 5-(5-Chloro-1H-benzimidazol-1yl)-3-[((1R)-1-{2-chloro-4-fluoro-3-[(1-methyl-4-piperidinyl)oxy]phenyl}ethyl)oxy]-2-thiophenecarboxamide] is less than 500 nM; for `CC(Oc1cc(-n2cnc3cc(-c4cnn(C)c4)ccc32)sc1C(N)=O)c1cccc(OC2CCNCC2)c1` (racemic) [Example 73, (±)-5-[5-(1-Methyl-1H-pyrazol-4-yl)-1H-benzimidazol-1yl[-3-({1-[3-(4-piperidinyloxy)phenyl]ethyl}oxy)-2-thiophenecarboxamide] it is greater than 1000 nM.
Under `C[C@@H](Oc1cc(-n2cnc3cc(-c4cnn(C)c4)ccc32)sc1C(N)=O)c1cccc(OC2CCN(C(=O)OC(C)(C)C)CC2)c1Cl` [Example 46, 1,1-Dimethylethyl 4-({3-[(1R)-1-({2-(aminocarbonyl)-5-[5-(1-methyl-1H-pyrazol-4-yl)-1H-benzimidazol-1-yl]-3-thienyl}oxy)ethyl]-2-chlorophenyl}oxy)-1-piperidinecarboxylate] stands less than 500 nM; under `C[C@@H](Oc1cc(-n2cnc3ccc(Br)cc32)sc1C(N)=O)c1cccc(OC2CCN(C)CC2)c1Cl` [Example 6, 5-(6-Bromo-1H-benzimidazol-1-yl)-3-[((1R)-1-{2-chloro-3-[(1-methyl-4-piperidinyl)oxy]phenyl}ethyl)oxy]-2-thiophenecarboxamide], less than 500 nM.
The figure for `Cc1ccc(-c2ccc3c(c2)ncn3-c2cc(O[C@H](C)c3cccc(OC4CCN(C)CC4)c3Cl)c(C(N)=O)s2)cn1` [Example 10, 3-[((1R)-1-[2-chloro-3-[(1-methyl-4-piperidinyl)oxy]phenyl}ethyl)oxy]-5-[5-(6-methyl-3-pyridinyl)-1H-benzimidazol-1-yl]-2-thiophenecarboxamide] is less than 500 nM; for `Cn1cc(-c2ccc3c(c2)ncn3-c2cc(OCc3cccc(OC4CCNCC4)c3)c(C(N)=O)s2)cn1` [Example 83, 5-[5-(1-Methyl-1H-pyrazol-4-yl)-1H-benzimidazol-1-yl]-3-({[3-(4-piperidinyloxy)phenyl]methyl}oxy)-2-thiophenecarboxamide] it is greater than 1000 nM.
On to `C[C@@H](Oc1cc(-n2cnc3cc(Cl)c(F)cc32)sc1C(N)=O)c1cccc(OC2CCNCC2)c1Cl` [Example 67], for which the IC50 was less than 500 nM.
